Literature values as cited in patent US20250235554A1, “METHODS FOR IMPROVING ADENO-[…] (AAV) […]” (Novartis AG, priority 2021, published 2025).

Test system: glymphatic flow
Details: mice and rats

Cc1cccc([C@H](C)c2cnc[nH]2)c1C [Dexmedetomidine]
effect on brain and spinal cord exposure of intrathecally administered drugs: increases brain and spinal cord drug exposure of intrathecally administered drugs
